From PMC11354674, “Genome Mining and Genetic Manipulation Reveal New Isofuranonaphthoquinones in Nocardia Species” (International Journal of Molecular Sciences, 2024)
Where two headings read alike, the source gives them in different places. One block for each molecule: values may come before it.

Key:
in vitro = test: in vitro; design: species or system A549, Huh7, HeLa, U87MG; MTT colorimetric cell growth / viability assay; conditions: human, hacat cells
Description: Lung cancer cells (A549), liver cancer cells (Huh7), cervical cancer cells (HeLa), brain cancer cells (U87MG), and a normal cell line (human keratinocyte cell line (HaCaT)) were acquired from the Korean Cell Line Bank (Seoul, Republic of Korea). Ten percent fetal bovine serum (FBS) was added to Dulbecco’s modified Eagle’s medium (DMEM) to culture the HeLa A549 cells. Similarly, Huh7 cells were grown in DMEM obtained from Corning Cellgro Manassas, VA, USA. Glioblastoma U87MG cells were cultured in a minimum essential medium (MEM) supplemented with 10% FBS. DMEM supplemented with 10% FBS, 100 µg/mL streptomycin, and 100 µg/mL benzylpenicillin was used to grow HaCaT cell lines. Each cell line was kept in an incubator with 5% CO2 that was humidified at 37 °C (Thermo Scientific, Vantaa, Finland). For the cell growth assays, various cancer cells at 2 × 10^3 cells/well were plated in 96-well culture plates. NOC-IBR1 and NOC-IBR2 were added to each well at various concentrations (200 μM, 100 μM, 50 μM, 25 μM, 12.5 μM, 6.25 μM, 3.16 μM, 1.56 μM, and 0.78 μM), and the cells were incubated for 72 h. […] Figure 4 The cytotoxicity of NOC-IBR1 and NOC-IBR2 was assessed across different cell lines. […] Cell growth was measured using the MTT colorimetric assay. […] Similarly, the IC50 values of doxorubicin in the above cell lines were also calculated (Table S4). […]

ThnM3 = tested on: T1, ThnM3; test: O-methylation assay, HPLC, nonlinear Michaelis-Menten fit; type: biochemical, Nocardia sp. CS682; conditions: 50 mM Tris, pH 8 in methods but pH 7.5 in Figure 5 legend, 5 µg ThnM3
T1 construct: methyltransferase of the tetrahydroxynaphthalene (THN) gene cluster

A549 = test: cells; design: species or system Huh7, HeLa, U87MG, HaCaT; MTT colorimetric cell growth / viability assay; conditions: Homo sapiens, A549, 72 h; read-out: NOC-IBR1 IC50
Description: (§1) Lung cancer cells (A549), liver cancer cells (Huh7), cervical cancer cells (HeLa), brain cancer cells (U87MG), and a normal cell line (human keratinocyte cell line (HaCaT)) were acquired from the Korean Cell Line Bank (Seoul, Republic of Korea). Ten percent fetal bovine serum (FBS) was added to Dulbecco’s modified Eagle’s medium (DMEM) to culture the HeLa A549 cells. Similarly, Huh7 cells were grown in DMEM obtained from Corning Cellgro Manassas, VA, USA. Glioblastoma U87MG cells were cultured in a minimum essential medium (MEM) supplemented with 10% FBS. DMEM supplemented with 10% FBS, 100 µg/mL streptomycin, and 100 µg/mL benzylpenicillin was used to grow HaCaT cell lines. Each cell line was kept in an incubator with 5% CO2 that was humidified at 37 °C (Thermo Scientific, Vantaa, Finland). For the cell growth assays, various cancer cells at 2 × 10^3 cells/well were plated in 96-well culture plates. NOC-IBR1 and NOC-IBR2 were added to each well at various concentrations (200 μM, 100 μM, 50 μM, 25 μM, 12.5 μM, 6.25 μM, 3.16 μM, 1.56 μM, and 0.78 μM), and the cells were incubated for 72 h. A 3-(4,5-dimethylthiazol-2-yl)-2,5-diphenyltetrazolium bromide (MTT) colorimetric assay was used to measure cell growth (cell viability).  Figure 4 The cytotoxicity of NOC-IBR1 and NOC-IBR2 was assessed across different cell lines. Each cell line was maintained in a 5% CO2 humidified incubator at 37 °C. The cells were seeded at a density of 2 × 10^3 cells/well in 96-well culture plates for the cell growth assay. Various concentrations of the compounds (200 μM, 100 μM, 50 μM, 25 μM, 12.5 μM, 6.25 μM, 3.16 μM, 1.56 μM, and 0.78 μM) were added to each well, and the cells were incubated for 72 h. Cell growth was measured using the MTT colorimetric assay. NOC-IBR1 and NOC-IBR2 were further subjected to cytotoxicity assays against four different cancer cell lines using a colorimetric test of 3-(4,5-dimethylthiazol-2-yl)-2,5-diphenyltetrazolium bromide (MTT) (Figure 4). […] Similarly, the IC50 values of doxorubicin in the above cell lines were also calculated (Table S4). […] These findings further indicate that NOC-IBR1 and NOC-IBR2 substantially reduce the viability of A549, Huh7, HeLa, and U87MG cells in a dose-dependent manner. This is the first report on the cytotoxicity of these two compounds against cancer cell lines.

HeLa = test: cells; design: species or system A549, Huh7, U87MG, HaCaT; MTT colorimetric cell growth / viability assay; conditions: Homo sapiens, HeLa, 72 h; read-out: NOC-IBR1 IC50
Description: as §1

Huh7 = test: cells; design: species or system A549, HeLa, U87MG, HaCaT; MTT colorimetric cell growth / viability assay; conditions: Homo sapiens, Huh-7, 72 h; read-out: NOC-IBR1 IC50
Description: as §1

U87MG = test: cells; design: species or system A549, Huh7, HeLa, HaCaT; MTT colorimetric cell growth / viability assay; conditions: Homo sapiens, U-87 MG, 72 h; read-out: NOC-IBR1 IC50
Description: as §1

SMILES: COc1cccc2c1C(=O)c1c(O)c3c(c(O)c1C2=O)C[C@@](O)(C(=O)CO)C[C@@H]3O[C@H]1C[C@H](N)[C@H](O)[C@H](C)O1 [Doxorubicin]
CC50 at 72 h (in vitro; read-out: Doxorubicin IC50 (μM), normal cells): 0.681 µM

Km (ThnM3; 2 mM SAM (saturating), read-out: apparent Km): 15.6 ± 1.75 µM
SMILES: COc1cc2c(c(O)c1O)C(=O)c1c(coc1C)C2 [NOC-IBR1, 6-methoxy-7,8-dihydroxy-1-methylnaphtho [2,3-c] furan-9-one]
IC50 (A549): 200 µM
IC50 (HeLa): 61.1 µM
IC50 (Huh7): 44.4 µM
IC50 (U87MG): 120 µM
CC50 at 72 h (in vitro; read-out: NOC-IBR1 IC50 (μM), normal cells): > 200 µM

Km (ThnM3; methyl donor, 100 µM NOC-IBR1 (near-saturating), read-out: Km): 39.7 ± 6.08 µM
SMILES: C[S+](CC[C@H](N)C(=O)O)C[C@H]1O[C@@H](n2cnc3c(N)ncnc32)[C@H](O)[C@@H]1O (some centres unmarked) [SAM]
